biological target: D(1A) dopamine receptor (Bos taurus, UniProt Q95136); assay: Binding affinity towards bovine dopamine D1 receptor by [3H]-SCH- 23390 displacement.
Sequence (Q95136 whole entry): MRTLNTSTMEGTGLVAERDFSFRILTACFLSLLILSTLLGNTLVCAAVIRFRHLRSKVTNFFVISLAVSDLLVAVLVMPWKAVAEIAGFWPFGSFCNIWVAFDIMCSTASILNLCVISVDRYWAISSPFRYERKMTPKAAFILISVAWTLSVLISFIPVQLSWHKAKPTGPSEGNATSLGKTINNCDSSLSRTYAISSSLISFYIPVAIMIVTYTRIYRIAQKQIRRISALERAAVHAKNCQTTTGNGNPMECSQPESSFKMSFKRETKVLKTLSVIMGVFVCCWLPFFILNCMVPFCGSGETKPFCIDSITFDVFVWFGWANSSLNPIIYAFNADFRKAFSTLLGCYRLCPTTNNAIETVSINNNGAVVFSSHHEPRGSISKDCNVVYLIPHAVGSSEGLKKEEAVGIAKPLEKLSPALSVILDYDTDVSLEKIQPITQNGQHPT

| SMILES | Ki [nM] |
| --- | --- |
| CNc1cc(OC)c(C(=O)NC[C@@H]2CN(Cc3ccccc3)C[C@H]2C)cc1Cl | 14000 |
| COc1cc(N(C)C(C)=O)c(Cl)cc1C(=O)NC[C@H]1CCN(Cc2ccccc2)C1 | 87000 |
| CNc1cc(OC)c(C(=O)NC[C@H]2CN(Cc3ccccc3)C[C@@H]2C)cc1Cl | 20000 |
| COc1cc(N(C)C(C)=O)c(Cl)cc1C(=O)NC[C@@H]1CCN(Cc2ccccc2)C1 | 75000 |
| COc1cc(N)c(Cl)cc1C(=O)NC[C@H]1CCN(Cc2ccccc2)C1 | 11000 |
| COc1cc(NC(C)=O)c(Cl)cc1C(=O)NC[C@H]1CCN(Cc2ccccc2)C1 | 41000 |
| COc1cc(NC(C)=O)c(Cl)cc1C(=O)NC[C@@H]1CCN(Cc2ccccc2)C1 | 35000 |
| COc1cc(N)c(Cl)cc1C(=O)NC[C@@H]1CCN(Cc2ccccc2)C1 | 11000 |
| CCN1CCC[C@H]1CNC(=O)c1cc(S(N)(=O)=O)ccc1OC [LEVOSULPIRIDE] | 50000 |
| CNc1cc(OC)c(C(=O)NC[C@@H]2CN(Cc3ccccc3)C[C@@H]2C)cc1Cl | 12000 |

Continued, values first:

| Ki [nM] | SMILES |
| --- | --- |
| 3300 | CCC[C@@H]1CN(Cc2ccccc2)C[C@H]1CNC(=O)c1cc(Cl)c(NC)cc1OC |
| 5200 | COc1ccc(Br)cc1C(=O)NC[C@H]1CCN(Cc2ccccc2)C1 |
| 4100 | CCC[C@H]1CN(Cc2ccccc2)C[C@@H]1CNC(=O)c1cc(Cl)c(NC)cc1OC |
| 11000 | CNc1cc(OC)c(C(=O)NC[C@H]2CN(Cc3ccccc3)C[C@H]2C)cc1Cl |
| 2800 | CCC[C@@H]1CN(Cc2ccccc2)C[C@@H]1CNC(=O)c1cc(Cl)c(NC)cc1OC |
| 9700 | CNc1cc(OC)c(C(=O)NC[C@H]2CCN(Cc3ccccc3)C2)cc1Cl |
| 5100 | CNc1cc(OC)c(C(=O)NC[C@@H]2CCN(Cc3ccccc3)C2)cc1Cl |
| 240 | CCC[C@H]1CN(Cc2ccccc2)C[C@H]1CNC(=O)c1cc(Cl)c(NC)cc1OC |
| 3700 | COc1ccc(Br)cc1C(=O)NC[C@@H]1CCN(Cc2ccccc2)C1 |

biological target: D(3) dopamine receptor (Homo sapiens, UniProt P35462); assay: Binding affinity towards human dopamine D3 receptor by [3H]spiperone displacement.
Sequence (P35462 whole entry): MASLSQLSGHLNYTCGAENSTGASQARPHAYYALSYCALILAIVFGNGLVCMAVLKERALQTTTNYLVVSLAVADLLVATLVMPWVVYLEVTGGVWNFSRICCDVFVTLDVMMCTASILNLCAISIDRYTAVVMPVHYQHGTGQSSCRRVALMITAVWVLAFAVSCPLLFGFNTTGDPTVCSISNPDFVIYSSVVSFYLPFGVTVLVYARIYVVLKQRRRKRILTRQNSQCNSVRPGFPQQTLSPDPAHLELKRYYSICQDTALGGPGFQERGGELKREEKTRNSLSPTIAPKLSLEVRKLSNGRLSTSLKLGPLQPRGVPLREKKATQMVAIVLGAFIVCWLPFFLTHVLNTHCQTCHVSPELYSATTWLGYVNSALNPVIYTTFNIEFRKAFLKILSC

| SMILES | Ki [nM] |
| --- | --- |
| CNc1cc(OC)c(C(=O)NC[C@@H]2CN(Cc3ccccc3)C[C@H]2C)cc1Cl | 210 |
| COc1cc(N(C)C(C)=O)c(Cl)cc1C(=O)NC[C@H]1CCN(Cc2ccccc2)C1 | 11000 |
| CNc1cc(OC)c(C(=O)NC[C@H]2CN(Cc3ccccc3)C[C@@H]2C)cc1Cl | 320 |
| COc1cc(N(C)C(C)=O)c(Cl)cc1C(=O)NC[C@@H]1CCN(Cc2ccccc2)C1 | 7200 |
| COc1cc(N)c(Cl)cc1C(=O)NC[C@H]1CCN(Cc2ccccc2)C1 | 2200 |
| COc1cc(NC(C)=O)c(Cl)cc1C(=O)NC[C@H]1CCN(Cc2ccccc2)C1 | 8700 |
| COc1cc(NC(C)=O)c(Cl)cc1C(=O)NC[C@@H]1CCN(Cc2ccccc2)C1 | 2700 |
| COc1cc(N)c(Cl)cc1C(=O)NC[C@@H]1CCN(Cc2ccccc2)C1 | 570 |
| CNc1cc(OC)c(C(=O)NC[C@@H]2CN(Cc3ccccc3)C[C@@H]2C)cc1Cl | 570 |

Next, values leading:

| Ki [nM] | SMILES |
| --- | --- |
| 270 | CCC[C@@H]1CN(Cc2ccccc2)C[C@H]1CNC(=O)c1cc(Cl)c(NC)cc1OC |
| 2100 | COc1ccc(Br)cc1C(=O)NC[C@H]1CCN(Cc2ccccc2)C1 |
| 350 | CCC[C@H]1CN(Cc2ccccc2)C[C@@H]1CNC(=O)c1cc(Cl)c(NC)cc1OC |
| 110 | CNc1cc(OC)c(C(=O)NC[C@H]2CN(Cc3ccccc3)C[C@H]2C)cc1Cl |
| 31 | CCC[C@@H]1CN(Cc2ccccc2)C[C@@H]1CNC(=O)c1cc(Cl)c(NC)cc1OC |
| 360 | CNc1cc(OC)c(C(=O)NC[C@H]2CCN(Cc3ccccc3)C2)cc1Cl |
| 47 | CNc1cc(OC)c(C(=O)NC[C@@H]2CCN(Cc3ccccc3)C2)cc1Cl |
| 310 | CCC[C@H]1CN(Cc2ccccc2)C[C@H]1CNC(=O)c1cc(Cl)c(NC)cc1OC |
| 1100 | COc1ccc(Br)cc1C(=O)NC[C@@H]1CCN(Cc2ccccc2)C1 |

biological target: T1, D(2) dopamine receptor (Homo sapiens, UniProt P14416); assay: Binding affinity towards human Dopamine receptor D2 (long) by [3H]-spiperone displacement.
T1 sequence (P14416 whole entry): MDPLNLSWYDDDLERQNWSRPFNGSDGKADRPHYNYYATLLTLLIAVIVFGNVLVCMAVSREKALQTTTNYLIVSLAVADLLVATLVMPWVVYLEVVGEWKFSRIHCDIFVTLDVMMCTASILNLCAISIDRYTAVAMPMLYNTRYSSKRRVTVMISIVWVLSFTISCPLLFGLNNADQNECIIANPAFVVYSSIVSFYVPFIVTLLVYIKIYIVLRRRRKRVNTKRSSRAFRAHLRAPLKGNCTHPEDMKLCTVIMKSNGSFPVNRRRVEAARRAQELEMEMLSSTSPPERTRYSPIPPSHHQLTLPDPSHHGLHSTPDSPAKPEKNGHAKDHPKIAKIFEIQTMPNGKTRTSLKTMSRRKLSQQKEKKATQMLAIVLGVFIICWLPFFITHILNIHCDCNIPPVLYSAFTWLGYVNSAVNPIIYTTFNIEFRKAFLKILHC

| SMILES | Ki [nM] |
| --- | --- |
| CNc1cc(OC)c(C(=O)NC[C@@H]2CN(Cc3ccccc3)C[C@H]2C)cc1Cl | 28 |
| COc1cc(N(C)C(C)=O)c(Cl)cc1C(=O)NC[C@H]1CCN(Cc2ccccc2)C1 | 38000 |
| CNc1cc(OC)c(C(=O)NC[C@H]2CN(Cc3ccccc3)C[C@@H]2C)cc1Cl | 330 |
| COc1cc(N(C)C(C)=O)c(Cl)cc1C(=O)NC[C@@H]1CCN(Cc2ccccc2)C1 | 30000 |
| COc1cc(N)c(Cl)cc1C(=O)NC[C@H]1CCN(Cc2ccccc2)C1 | 820 |
| COc1cc(NC(C)=O)c(Cl)cc1C(=O)NC[C@H]1CCN(Cc2ccccc2)C1 | 27000 |
| COc1cc(NC(C)=O)c(Cl)cc1C(=O)NC[C@@H]1CCN(Cc2ccccc2)C1 | 19000 |
| COc1cc(N)c(Cl)cc1C(=O)NC[C@@H]1CCN(Cc2ccccc2)C1 | 1400 |
| CNc1cc(OC)c(C(=O)NC[C@@H]2CN(Cc3ccccc3)C[C@@H]2C)cc1Cl | 51 |

Next, values leading:

| Ki [nM] | SMILES |
| --- | --- |
| 54 | CCC[C@@H]1CN(Cc2ccccc2)C[C@H]1CNC(=O)c1cc(Cl)c(NC)cc1OC |
| 2000 | COc1ccc(Br)cc1C(=O)NC[C@H]1CCN(Cc2ccccc2)C1 |
| 980 | CCC[C@H]1CN(Cc2ccccc2)C[C@@H]1CNC(=O)c1cc(Cl)c(NC)cc1OC |
| 150 | CNc1cc(OC)c(C(=O)NC[C@H]2CN(Cc3ccccc3)C[C@H]2C)cc1Cl |
| 190 | CCC[C@@H]1CN(Cc2ccccc2)C[C@@H]1CNC(=O)c1cc(Cl)c(NC)cc1OC |
| 110 | CNc1cc(OC)c(C(=O)NC[C@H]2CCN(Cc3ccccc3)C2)cc1Cl |
| 110 | CNc1cc(OC)c(C(=O)NC[C@@H]2CCN(Cc3ccccc3)C2)cc1Cl |
| 45 | CCC[C@H]1CN(Cc2ccccc2)C[C@H]1CNC(=O)c1cc(Cl)c(NC)cc1OC |
| 3100 | COc1ccc(Br)cc1C(=O)NC[C@@H]1CCN(Cc2ccccc2)C1 |

biological target: T1, D(2) dopamine receptor; assay: Binding affinity towards human Dopamine receptor D2 (short) by [3H]-spiperone displacement.

| SMILES | Ki [nM] |
| --- | --- |
| CNc1cc(OC)c(C(=O)NC[C@@H]2CN(Cc3ccccc3)C[C@H]2C)cc1Cl | 10 |
| COc1cc(N(C)C(C)=O)c(Cl)cc1C(=O)NC[C@H]1CCN(Cc2ccccc2)C1 | 28000 |
| CNc1cc(OC)c(C(=O)NC[C@H]2CN(Cc3ccccc3)C[C@@H]2C)cc1Cl | 120 |
| COc1cc(N(C)C(C)=O)c(Cl)cc1C(=O)NC[C@@H]1CCN(Cc2ccccc2)C1 | 19000 |
| COc1cc(N)c(Cl)cc1C(=O)NC[C@H]1CCN(Cc2ccccc2)C1 | 540 |
| COc1cc(NC(C)=O)c(Cl)cc1C(=O)NC[C@H]1CCN(Cc2ccccc2)C1 | 25000 |
| COc1cc(NC(C)=O)c(Cl)cc1C(=O)NC[C@@H]1CCN(Cc2ccccc2)C1 | 21000 |
| COc1cc(N)c(Cl)cc1C(=O)NC[C@@H]1CCN(Cc2ccccc2)C1 | 640 |
| CNc1cc(OC)c(C(=O)NC[C@@H]2CN(Cc3ccccc3)C[C@@H]2C)cc1Cl | 21 |

Continued, values first:

| Ki [nM] | SMILES |
| --- | --- |
| 24 | CCC[C@@H]1CN(Cc2ccccc2)C[C@H]1CNC(=O)c1cc(Cl)c(NC)cc1OC |
| 1500 | COc1ccc(Br)cc1C(=O)NC[C@H]1CCN(Cc2ccccc2)C1 |
| 540 | CCC[C@H]1CN(Cc2ccccc2)C[C@@H]1CNC(=O)c1cc(Cl)c(NC)cc1OC |
| 79 | CNc1cc(OC)c(C(=O)NC[C@H]2CN(Cc3ccccc3)C[C@H]2C)cc1Cl |
| 190 | CCC[C@@H]1CN(Cc2ccccc2)C[C@@H]1CNC(=O)c1cc(Cl)c(NC)cc1OC |
| 86 | CNc1cc(OC)c(C(=O)NC[C@H]2CCN(Cc3ccccc3)C2)cc1Cl |
| 58 | CNc1cc(OC)c(C(=O)NC[C@@H]2CCN(Cc3ccccc3)C2)cc1Cl |
| 28 | CCC[C@H]1CN(Cc2ccccc2)C[C@H]1CNC(=O)c1cc(Cl)c(NC)cc1OC |
| 1600 | COc1ccc(Br)cc1C(=O)NC[C@@H]1CCN(Cc2ccccc2)C1 |

biological target: T2, D(4) dopamine receptor (Homo sapiens, UniProt P21917); assay: Binding affinity towards human Dopamine receptor D4 by [3H]spiperone displacement.
T2 sequence (P21917 whole entry): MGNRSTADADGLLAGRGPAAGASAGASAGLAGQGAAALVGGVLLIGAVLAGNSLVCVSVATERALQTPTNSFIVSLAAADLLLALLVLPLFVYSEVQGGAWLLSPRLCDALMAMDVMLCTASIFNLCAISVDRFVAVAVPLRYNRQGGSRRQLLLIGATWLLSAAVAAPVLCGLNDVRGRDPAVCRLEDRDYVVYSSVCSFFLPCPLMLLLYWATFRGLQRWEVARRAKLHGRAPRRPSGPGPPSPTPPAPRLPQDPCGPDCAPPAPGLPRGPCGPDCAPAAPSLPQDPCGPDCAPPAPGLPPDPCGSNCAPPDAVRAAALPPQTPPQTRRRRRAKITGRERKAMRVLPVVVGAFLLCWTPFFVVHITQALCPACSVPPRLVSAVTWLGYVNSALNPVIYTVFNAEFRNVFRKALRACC

| SMILES | Ki [nM] |
| --- | --- |
| CNc1cc(OC)c(C(=O)NC[C@@H]2CN(Cc3ccccc3)C[C@H]2C)cc1Cl | 220 |
| COc1cc(N(C)C(C)=O)c(Cl)cc1C(=O)NC[C@H]1CCN(Cc2ccccc2)C1 | 7000 |
| CNc1cc(OC)c(C(=O)NC[C@H]2CN(Cc3ccccc3)C[C@@H]2C)cc1Cl | 150 |
| COc1cc(N(C)C(C)=O)c(Cl)cc1C(=O)NC[C@@H]1CCN(Cc2ccccc2)C1 | 4200 |
| COc1cc(N)c(Cl)cc1C(=O)NC[C@H]1CCN(Cc2ccccc2)C1 | 140 |
| COc1cc(NC(C)=O)c(Cl)cc1C(=O)NC[C@H]1CCN(Cc2ccccc2)C1 | 340 |
| COc1cc(NC(C)=O)c(Cl)cc1C(=O)NC[C@@H]1CCN(Cc2ccccc2)C1 | 250 |
| COc1cc(N)c(Cl)cc1C(=O)NC[C@@H]1CCN(Cc2ccccc2)C1 | 180 |
| CNc1cc(OC)c(C(=O)NC[C@@H]2CN(Cc3ccccc3)C[C@@H]2C)cc1Cl | 240 |

Second part, the molecule after the results:

| Ki [nM] | SMILES |
| --- | --- |
| 130 | CCC[C@@H]1CN(Cc2ccccc2)C[C@H]1CNC(=O)c1cc(Cl)c(NC)cc1OC |
| 46 | COc1ccc(Br)cc1C(=O)NC[C@H]1CCN(Cc2ccccc2)C1 |
| 990 | CCC[C@H]1CN(Cc2ccccc2)C[C@@H]1CNC(=O)c1cc(Cl)c(NC)cc1OC |
| 47 | CNc1cc(OC)c(C(=O)NC[C@H]2CN(Cc3ccccc3)C[C@H]2C)cc1Cl |
| 200 | CCC[C@@H]1CN(Cc2ccccc2)C[C@@H]1CNC(=O)c1cc(Cl)c(NC)cc1OC |
| 23 | CNc1cc(OC)c(C(=O)NC[C@H]2CCN(Cc3ccccc3)C2)cc1Cl |
| 19 | CNc1cc(OC)c(C(=O)NC[C@@H]2CCN(Cc3ccccc3)C2)cc1Cl |
| 46 | CCC[C@H]1CN(Cc2ccccc2)C[C@H]1CNC(=O)c1cc(Cl)c(NC)cc1OC |
| 48 | COc1ccc(Br)cc1C(=O)NC[C@@H]1CCN(Cc2ccccc2)C1 |

From ChEMBL document CHEMBL1132075, “Enantio- and diastereocontrolled dopamine D1, D2, D3 and D4 receptor binding of N-(3-pyrrolidinylmethyl)benzamides synthesized from aspartic acid” (Bioorg Med Chem Lett, 1999)
